Patent US20120252773A1, “Method and composition for inhibiting cell proliferation and angiogenesis” (priority 2005, published 2012)
Where two headings read alike, the source gives them in different places.

Columns and labels:
[1] = test system: Human Dermal Microvascular Endothelial Cells (HDMVEC); test: Growth inhibition of HDMVEC cells, MTT, 7 days; type: cell-based; details: Endothelial cell
Protocol: To measure the inhibitory activity of (2) on growth of HDMVEC cells (Clonetics, San Diego, Calif.), 2,000 cells were seeded in each well of a 96-well plate in […] of EGM medium (Clonetics) supplemented with 5% fetal bovine serum (Sigma). The plate was incubated at 37° C. in a tissue culture incubator for 24 h, and then various concentrations of (2) dissolved in EGM were added to each well in 5-10 μl aliquots. Four wells were used for each concentration. Medium in each well was renewed with fresh test solution added every other day. After 7 days of culture, the viable cells were measured using reagents from an MTT kit (Promega Corporation, Madison, Wis.), using instructions provided by the supplier. The number of viable cells in treated wells relative to those in control wells gave the percentage of inhibition.
The procedures of Example 3 were carried out to evaluate the inhibitory effect of various compounds of the invention on the growth of HDMVEC cells (Clonetics, San Diego, Calif.).

[2] = test system: A549 human non small cell lung cancer tumors; test: A549 NSCLC nude mouse xenograft model, tumor growth; type: in vivo; details: 30 days
Protocol: The xenograft model was conducted using 8 weeks old female athymic nude mice supplied by Charles River Laboratories. After 4 days of quarantine, A549 human non small cell lung cancer cells (3×10^6 cells/mouse) were subcutaneously implanted in the right flanks of mice in a 100 μl of Matrigel/phosphate buffered saline mixture (1:1). Animals were observed daily for tumor growth. When tumors became palpable, we began to measure the tumors using the formula V=W×L×H×π/6, where W and L represent the shorter and longer diameters of the tumor, H the height of the tumor. When tumor volumes reached approximately 50 mm^3, animals were randomized into control and treatment groups of 10 mice each based on tumor volumes. Only the mice with tumor volumes closest to the mean value were used. On the day of randomization, animals began to receive drug treatment. Compound (2) and Tarceva (Erlotinib) were orally dosed via gavage once daily. Cisplatin and Paclitaxel were dosed via intraperitoneal injection once weekly.
After initiation of drug treatment, tumor volumes were measured twice weekly and body weights once weekly. The study was carried out for 30 days and unscheduled sacrifices were performed on animals with tumor volumes greater than 1500 mm^3 or tumors developing ulceration or loss of 20% of their original body weights. […]

[3] = test system: Chick Chorioallantoic Membrane (CAM); test: Chick chorioallantoic membrane (CAM) assay, blood vessel density; type: in vivo; details: 12.5 μg per embryo in 0.5% methylcellulose, vs vehicle control
Protocol: A CAM assay was conducted as previously described (K. Amin, J. Li, and W-R. Chao, Cancer Biol. Ther. 2: 173-178, (2003). Briefly, fresh fertile eggs were incubated in a standard egg incubator at 37° C. for 3 days. On Day 3, eggs were cracked under sterile conditions and embryos were placed into 20×100 mm sterile plastic Petri dishes and cultivated at 37° C. in an embryo incubator with a water reservoir on the bottom shelf. Air was continuously bubbled into the water reservoir using a small pump so that the humidity in the incubator was kept constant. On Day 6, a sterile silicon “o” ring was placed on each CAM, and test compound (2) dissolved in 0.5% methylcellulose was delivered into each “o” ring under sterile conditions. Embryos were returned to the incubator. Control embryos received 10 μL of vehicle alone, while 12.5 μg of (2) was delivered to test embryos. On Day 8, embryos were removed from the incubator and kept at room temperature while blood vessel density was determined under each “o” ring using an image capturing system at a magnification of 160×.

SMILES: C[C@@H]1Cc2cc(O)ccc2C2CCC3(C)/C(=C/COCCN(C)C)CCC3C21 (stereo partly drawn) [Compound (2), (E)-3-Hydroxy-7α-methyl-21-[(2-dimethylamino)ethoxy]-19-norpregna-1,3,5(10),17(20)-tetraene]
- IC50 ([1]; 168 h, 7 days of culture, MTT, read-out: IC50 value, growth of HDMVEC cells): ~80 nM
- IC50 ([1]; HDMVEC growth, procedures of Example 3, read-out: Inhibitory Effect (IC50 Value)): 80 nM
- growth rate of A549 tumors ([2]; 10 mg/kg oral once daily): drastically reduced the growth rate
- growth rate of A549 tumors ([2]; 20 mg/kg oral once daily): drastically reduced the growth rate
- blood vessel density [3]: drastically decreased the blood vessel density
